Source: article PMC12067128, “Macrocyclization: Enhancing Drug-like Properties of Discoidin Domain Receptor Kinase Inhibitors” (ACS Medicinal Chemistry Letters, 2025)

Key:
DDR1 = target: T1, DDR1 (Homo sapiens, UniProt Q08345); assay: PathHunter U2OS DDR1 Functional Assay (DDR1 cellular assay); type: cell-based; details: U2OS PathHunter cells, collagen II stimulation; read-out: Cell DDR1 IC50
T1 construct: ProLink™ (PK) tagged full-length DDR1b; host or cells: U2OS human osteosarcoma cells (PathHunter U2OS DDR1)
T1 sequence (Q08345 19-913): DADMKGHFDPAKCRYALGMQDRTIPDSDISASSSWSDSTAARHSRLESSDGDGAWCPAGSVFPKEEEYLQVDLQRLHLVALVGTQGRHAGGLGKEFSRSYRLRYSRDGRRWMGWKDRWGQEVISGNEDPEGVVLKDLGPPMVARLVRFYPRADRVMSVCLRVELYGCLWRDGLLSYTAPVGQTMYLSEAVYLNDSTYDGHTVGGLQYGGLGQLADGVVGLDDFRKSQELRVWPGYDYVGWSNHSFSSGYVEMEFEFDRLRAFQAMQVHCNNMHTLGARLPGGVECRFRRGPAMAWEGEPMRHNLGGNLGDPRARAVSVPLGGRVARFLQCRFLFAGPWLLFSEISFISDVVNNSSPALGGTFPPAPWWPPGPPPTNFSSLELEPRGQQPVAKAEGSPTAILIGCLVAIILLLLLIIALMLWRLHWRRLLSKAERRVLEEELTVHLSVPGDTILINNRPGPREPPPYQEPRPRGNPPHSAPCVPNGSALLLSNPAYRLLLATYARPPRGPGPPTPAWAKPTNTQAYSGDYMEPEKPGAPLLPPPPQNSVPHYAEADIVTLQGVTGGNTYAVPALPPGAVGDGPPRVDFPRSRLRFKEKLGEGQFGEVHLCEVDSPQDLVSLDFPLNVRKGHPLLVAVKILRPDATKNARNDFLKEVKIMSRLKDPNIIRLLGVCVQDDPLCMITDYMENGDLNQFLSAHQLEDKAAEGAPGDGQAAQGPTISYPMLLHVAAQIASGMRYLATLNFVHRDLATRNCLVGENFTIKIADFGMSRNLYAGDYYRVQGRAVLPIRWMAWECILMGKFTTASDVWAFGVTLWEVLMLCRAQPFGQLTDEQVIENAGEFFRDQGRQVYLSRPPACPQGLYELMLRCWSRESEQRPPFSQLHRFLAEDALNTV
Procedure: page 17: In vitro Biology DDR1 cellular assay The activity of Discoidin Domain-containing Receptor protein kinase (DDR) inhibitors was determined using the PathHunter® U2OS DDR1 Functional Assay which employs Enzyme Fragment Complementation (EFC) technology, where the β-galactosidase (β-gal) enzyme is split into two fragments, ProLink (PK) and Enzyme Acceptor (EA). Independently these fragments […] β-gal enzyme. In the PathHunter® U2OS DDR1 Functional Assay, the U2OS human osteosarcoma cell line is modified to co-express a ProLinkTM (PK) tagged full-length DDR1b and an Enzyme Acceptor (EA) tagged SH2 domain. Collagen II, as a ligand, induces activation of DDR1b which results in cross-phosphorylation. The SH2-EA fusion protein then specifically binds the phosphorylated receptor resulting in complementation of the two fragments of β-gal and formation of a functional enzyme. β-gal activity is then quantitatively detected using a chemiluminescent substrate. PathHunter® Human U2OS DDR1 cells were prepared in AssayCompleteTM Cell Plating 16 Reagent (DiscoverX 93-0563R16A) and plated at 5000 cells/well in a 384-well white, clear-bottom, sterile plate (ThermoFisher 142762) and incubated for 90 minutes at 37 °C, 5% CO2. Test compounds were serially diluted from a top concentration of 10 mM (1000x final assay concentration) directly in a 384-well low-volume polypropylene plate (Greiner bio-one 784201) using an Echo 555 acoustic liquid handler (Labcyte). Test compounds were diluted in AssayCompleteTM Cell Plating 16 Reagent then added to cells using an Integra ViaFlow384 electronic reagent dispenser and pre-incubated at 37 °C, 5% CO2 for 30 minutes. Following compound pre-incubation, the cells were stimulated with 20 μg/ml Bovine Type II Collagen (DiscoverX 92-1090) with incubation for 20 hours at 37 °C, 5% CO2. Next, PathHunter Detection Reagent (DiscoverX 93-[…]) was added to the cells, incubated for 60 minutes at 25 °C in the dark, prior to capturing the chemiluminescent signal on a PHERAstar (BMG LABTECH). The percentage of inhibition was calculated for each concentration of compound using a 0.1% DMSO vehicle/Collagen II control response as a 0% inhibition and a 10 nM Dasatinib/Collagen II positive 17 page 18: control response as a 100% inhibition. The final assay concentration of the top of the test compound CRC was 10 μM. 18

Kinetic solubility = type: physicochemical
Procedure: Using a stock solution of test compound in 100% DMSO, duplicate dilutions were prepared at a nominal concentration of 200 µM in 0.1 M phosphate buffered saline (PBS) at pH 7.4, with a 2% final DMSO content. Test compound calibration standards were prepared at 200 µM and 10 µM in 100%
DMSO. The PBS and DMSO dilutions were equilibrated on a shaking platform at room temperature for two hours prior to filtration using a Multiscreen HTS solubility filter plate (Millipore). Filtrates were analysed by LC-UV-MS and the concentration of compound in PBS filtrate determined by comparing the UV absorbance peak with that of the two DMSO calibration standards. Mass spectrometry will be used to confirm the presence of the expected molecular ion in the UV peak measured. The effective range of the assay is 5 – 200 µM. […]

[1] = Microsomes stability (clearance in human microsomes); type: in vitro ADME; details: liver microsomes, pH 7.4, 0.8 mg protein/mL, 1 mM NADPH, 37 °C, read-out: CLint h mic (clearance in human microsomes)
Procedure: values in Caco-2 assay were: <10 nm/s = low level; 10-50 nm/s = medium level; >50 nm/s = high […]
Test compounds were incubated, in duplicate, at the concentration of 1 μM with liver microsomes (0.8 mg protein/mL) in Dulbecco’s buffer (pH 7.4) at 37 °C in the presence of 1 mM NADPH. At different time points (0, 5, 10, 20, 30, and 60 min), 50 μL aliquots of the incubates were taken, added with 80 μL of ice-cold acetonitrile, and 20 μL of 1 μM warfarin in acetonitrile (injection check) to stop the reaction, and samples were centrifuged. The supernatants were analyzed by LC−MS/MS for unchanged compounds. Test compounds were incubated with liver microsomes in Dulbecco’s buffer in the absence of NADPH for 0 and 60 min, as control. Midazolam at the concentration of 1 μM, was incubated with microsomes as positive control for phase I activity of microsomes. Control samples were processed as test compound samples.

[2] = ChromLogD chromatographic lipophilicity; type: physicochemical; details: C18 column, pH 7.4
Procedure: The chromatographic method was based on the differential retention times of test compounds on a C18 column (Luna C18(2), 30 x 2mm, […], 100 Å) under controlled liquid chromatography conditions, comparing retention times with those of standards (Benzyl Alcohol, p-Nitrophenol, Bromobenzene, Anthracene) with known log D values. Stock solutions (10 mM in DMSO) of test compounds were diluted to a final concentration of 1 mM. The mobile phases consisted of A (20mM Ammonium Acetate buffered to pH 7.4 with ammonia hydroxide) and B (ACN). The LC gradient profile was the following: a linear increase to 90% B during 0.0 to 1.3 min, hold at 90 % B during 1.3 to 1.53 min then back to 0.0% B from 1.53 to 1.60 min, hold at 0% B until the end of the run (2.00 min). 1 μL of the sample volume was injected, using a flow rate of 0.5 mL/min and a column temperature of 40°C. All compounds were detected by UPLC/MS analysis using a a Waters ACQUITY UPLC equipped with a Photo Diode Array (PDA) detector coupled with a Waters ACQUITY QDa single quadrupole mass spectrometer with an Electrospray ionization (ESI) source.
The retention times were obtained by processing data in Waters Openlynx. The standards are then plotted in excel and the best fit line was used as the basis for calculating the unknown LogD values from the retention times of the peaks obtained.

[3] = BRlogD chromatographic lipophilicity; type: physicochemical; details: XBridge Shield RP18, pH 7.0, 60% acetonitrile
Procedure: The original method was described in a previous paper.e Briefly, a HPLC Thermo Fisher Scientific Dionex Ultimate 3000 instrument equipped with a Low-Pressure Mixing Gradient Pump LPG-3400 SD, ACC-3000 autosampler with termostatable column compartment, a DAD-3000 RS Detector and Chromeleon Data System Version 7.2.10 was used. Deionized water and HPLC grade acetonitrile were used throughout. The mobile phases consisted of 20 mM ammonium acetate at pH 7.0 and acetonitrile 60% v/v. Samples were dissolved in a 1:1 mixture of buffer/acetonitrile in the concentration range of 50–100 ug/mL. A 10uL volume of each solution was injected at 30°C and flow rate was 1 mL/min. The dead time, t0, was determined by monitoring the baseline disturbance.
retention time (tR) was measured on a XBridgeTM Shield RP18 (Waters, 5cm x 4.6 mm, 5 µm particle size, 130Å pore size). Isocratic log k’ (capacity factor k’ = (tR - t0)/t0) values were measured. The relationship between log D and log k’60 has been determined previously and is reported below (Eq.
We termed this log D as BRlogD.

[4] = log kW IAM (immobilized artificial membrane chromatography); type: physicochemical; details: lipophilicity descriptor, phospholipid interaction
From the text: (§1) Lipophilicity has been obtained in four different systems. BRlogD and ChromlogD are chromatographic surrogates of log Doct and, despite showing different values, are linearly correlated (Figure S4). Log k′ 80 PLRP-S is a surrogate of log Dtol. Log kw ^IAM mimics the interaction between the compounds and the phospholipids of membranes. The combination of the experimental lipophilicity descriptors is essential to evaluate lipophilicity in different regions of the membrane bilayer. This complete lipophilicity profile may give an idea of the permeability potential of poorly soluble compounds for which standard permeability measurements are unreliable. […] This is supported by its low IC50 value in the cell-based assay.

[5] = log k'80 PLRP-S chromatographic descriptor; type: physicochemical; details: surrogate of log Dtol
From the text: as §1

[6] = Δlog kW IAM polarity descriptor; type: physicochemical; details: polarity in aqueous medium
Procedure: (§2) Polarity is quantified by two descriptors: EPSA and Δlog kw ^IAM. The first is measured in an almost fully nonpolar environment, and the second describes polarity in an aqueous medium. […] This is also in line with the higher solubility of KIMCs over 1.

EPSA polarity descriptor = type: physicochemical; details: almost fully nonpolar environment; polarity in nonpolar environment
Procedure: as §2

[7] = Chamelogk chameleonicity descriptor; type: physicochemical; details: >0.6 = chameleons, <0.6 = non-chameleons
Procedure: Finally, chameleonicity was measured with the recently described Chamelogk method (Table ), where 0.6 is the threshold value to distinguish chameleons from non-chameleons.

SMILES: Cc1ccc(C(=O)Nc2cccc(C(F)(F)F)c2)cc1-c1cc2nc(Nc3cnn(C)c3)ncc2[nH]1 [Compound 1]
- IC50 (DDR1): 3 nM
- kinetic solubility (in words) (Kinetic solubility): almost insoluble
- solubility kinetic at 2 h (Kinetic solubility; phosphate buffered saline, PBS pH 7.4, 2% DMSO, 2 h room temperature, assay range 5-200 µM, read-out: KS (kinetic solubility)): < 5 µM
- microsomal CLint at 1 h, 1 µM [1]: 19 ± 2.1 µL/min/mg
- chromatographic logD [2]: 2.92
- BRlogD [3]: 3.36
- log kW^IAM [4]: 2.53
- logk'80 PLRP-S [5]: -0.3
- Δlog kW^IAM [6]: 0.47
- EPSA (EPSA polarity descriptor): 106 A^2
- Chamelogk [7]: 0.99
